Patent US9770503B2, “Immunomodulating compositions and uses therefor” (CANCURE LIMITED ACN 164 438 359, priority 2003, dated 2017)

System: splenic lymphocytes cultured with C57bl6J derived B16F10 melanoma cells
Experiment: Mixed lymphocyte culture (MLC) screening assay, melanoma cells as stimulators
Type: cell-based, mice
Conditions: 3 days of growth; FIG. 4
Source text: The inventor has established a rapid screening assay for analysing the immune-enhancing activities of various lectin-interactive agents. The assay is based on the ability to grow lymphocytes derived from the spleens of vaccinated mice in mixed lymphocyte culture (MLC) in the presence or absence of the agents. The theory behind this approach is that tumour cells secrete galectins which then kill the T lymphocytes.
Tumour cells, either NeuD12 FVB/N 202 breast cancer cells or C57bl6J derived B16F10 melanoma cells were used as stimulators and target cells for the assays. The tumour cells used as stimulators in the MLC were prepared as outlined in WO 01/88097 to express high levels of B7 antigen and were treated with interferon γ (1000 IU/mL) for 24 h before addition of interferon β (1000 IU/mL) for a further 24-48 h. The tumour cells were grown in 35 mm diameter×6 well cell culture dishes at about 1.5×10^6 cells per well. The tumour cells, after IFN treatment, were incubated with the growth arresting drug, mitomycin C for 20-25 min in situ in the 6-well culture dishes before it was removed by washing with PBS or fresh media three times and resuspension in 4 mL of fresh complete RPMI media/10% FCS.
Lymphocytes were extracted from the spleen of vaccinated mice and passed through a 100-200 μm stainless steel mesh sieve into 5-10 mL complete RPMI media. The red blood cells were removed by centrifugation on lymphoprep and the white blood cell layer at the interface between the culture media phase and ficoll/Hypaque phase was harvested and the ficoll/Hypaque removed by washing. […] After 2-3 days, or as required (assessed by the colour of the media pH indicator change), half the media was carefully aspirated away from each well and replaced with fresh complete media with or without added lectin-interacting agent (e.g., a carbohydrate as disclosed for instance herein generally at about 0.1 mM to about 10 mM final concentration, typically at about 1 mM). […]

Row | Structure (SMILES) | proliferation of lymphocytes in a melanoma-specific MLC
1 | OC[C@H]1O[C@@H](O[C@@H]2[C@@H](CO)OC(O)(CO)[C@H]2O)[C@H](O)[C@@H](O)[C@H]1O (mixture of isomers) [lactulose] | promoting the proliferation of lymphocytes
2 | OC[C@@H](O)[C@@H](O[C@@H]1O[C@H](CO)[C@H](O)[C@H](O)[C@H]1O)[C@H](O)[C@@H](O)CO [D-lactitol monohydrate] | promoting the proliferation of lymphocytes
3 | OC[C@H]1O[C@@H](O[C@H]2[C@H](O)[C@@H](O)[C@H](OCc3ccccc3)O[C@@H]2CO)[C@H](O)[C@@H](O)[C@H]1O [benzyl 4-O-β-D-galactopyranosyl-β-D-glucopyranoside] | promoting the proliferation of lymphocytes
